The values below come from US5218096A, “Lactoneotrehalose, and its preparation and uses” (Kabushiki Kaisha Hayashibara Seibutsu Kagaku Kenkyujo, priority 1990, dated 1993).

For orientation: solubility means the concentration that dissolves in the medium under given conditions. Low readings indicate little dissolved substance, high ones much dissolved substance.

≈ marks a conversion by molar mass, not a printed value. Like-named read-outs stand apart in the source and are kept apart here.

A short description of data set [1]: Digestion test in vitro, hydrolysis rate. Format: in vitro ADME. To be noted: salivary amylase, read-out: hydrolysis rate (the ratio of reducing sugars against total sugars).
Protocol: (§2) In accordance with the method reported in Okada et al., Journal of Japanese Society of Nutrition and Food Science, Vol.43, No.1, pp.23-29 (1990), a crystalline lactoneotrehalose specimen prepared by the method in Experiment 1 was tested for its digestibility in vitro, and the digestibility was evaluated based on the hydrolysis rate (the ratio of reducing sugars against total sugars).
Data set [2] is described as follows: Digestion test in vitro, hydrolysis rate. The following applies: gastric juice, read-out: hydrolysis rate (the ratio of reducing sugars against total sugars). In kind it is in vitro ADME.
Protocol: as §2
The nature of data set [3]: Digestion test in vitro, hydrolysis rate. The following applies: amylopsin, read-out: hydrolysis rate (the ratio of reducing sugars against total sugars). In kind it is in vitro ADME.
Protocol: as §2
Data set [4] can be described thus: Digestion test in vitro, hydrolysis rate. Format: in vitro ADME. The following applies: small intestinal mucosa enzyme; in vitro, enzyme of small intestinal mucous membrane; read-out: hydrolysis rate (the ratio of reducing sugars against total sugars).
Protocol: as §2
Data set [5] deals with Enzyme of small intestinal mucous membrane. Nature of the data set: Digestion test in vitro, hydrolysis rate. Format: in vitro ADME. The following applies: conclusion from Table 1.
Protocol: as §2
For data set [6], the system named is Bacteroides distasonis JCM 5825. As to the kind of experiment: Assimilation by intestinal microorganism. In kind it is cell-based. The following applies: 0.5 w/v % saccharide, PYF broth, 37° C., 96 hours. How it is done: (§1) The resultant broth was diluted 5-fold, and the turbidity of the diluted solution was determined at 750 nm in 1-cm cell cuvette. The growth of the intestinal microorganisms and the assimilability of lactoneotrehalose were both evaluated with the turbidity. As control, glucose and lactose were used in place of lactoneotrehalose.

For data set [7], the system named is Bifidobacterium adolescentis JCM 1275. As to the kind of experiment: Assimilation by intestinal microorganism. Format: cell-based. To be noted: 0.5 w/v % saccharide, PYF broth, 37° C., 96 hours. How it is done:
as §1

The subject of data set [8] is Bifidobacterium animalis JCM 1190. As to the kind of experiment: Assimilation by intestinal microorganism. Format: cell-based. To be noted: 0.5 w/v % saccharide, PYF broth, 37° C., 96 hours. How it is done: as §1
Data set [9] relates to Bifidobacterium breve JCM 1192. Nature of the data set: Assimilation by intestinal microorganism. In kind it is cell-based. To be noted: 0.5 w/v % saccharide, PYF broth, 37° C., 96 hours. How it is done: as §1
The subject of data set [10] is Bifidobacterium infantis JCM 1222. Nature of the data set: Assimilation by intestinal microorganism. In kind it is cell-based. To be noted: 0.5 w/v % saccharide, PYF broth, 37° C., 96 hours. How it is done:
as §1

Data set [11] has as its system Bifidobacterium longum JCM 1217. Nature of the data set: Assimilation by intestinal microorganism. In kind it is cell-based. To be noted: 0.5 w/v % saccharide, PYF broth, 37° C., 96 hours. How it is done: as §1
The subject of data set [12] is Clostridium sporogenes JCM 1416. As to the kind of experiment: Assimilation by intestinal microorganism. The following applies: 0.5 w/v % saccharide, PYF broth, 37° C., 96 hours. In kind it is cell-based. How it is done: as §1
The test system of data set [13] is Escherichia coli IFO 3301. As to the kind of experiment: Assimilation by intestinal microorganism. In kind it is cell-based. The following applies: 0.5 w/v % saccharide, PYF broth, 37° C., 96 hours. How it is done:
as §1

The test system of data set [14] is Eubacterium aerofaciens ATCC 25986. Nature of the data set: Assimilation by intestinal microorganism. In kind it is cell-based. The following applies: 0.5 w/v % saccharide, PYF broth, 37° C., 96 hours. How it is done:
as §1

Data set [15] concerns Eubacterium limosum JCM 6421. Nature of the data set: Assimilation by intestinal microorganism. Format: cell-based. To be noted: 0.5 w/v % saccharide, PYF broth, 37° C., 96 hours. How it is done: as §1
Data set [16] deals with Lactobacillus acidophilus JCM 1132. As to the kind of experiment: Assimilation by intestinal microorganism. In kind it is cell-based. To be noted: 0.5 w/v % saccharide, PYF broth, 37° C., 96 hours. How it is done:
as §1

Data set [17] has as its system Lactobacillus plantarum IFO 3070. Nature of the data set: Assimilation by intestinal microorganism. To be noted: 0.5 w/v % saccharide, PYF broth, 37° C., 96 hours. Format: cell-based. How it is done: as §1
Data set [18] relates to Peptostreptococcus prevotii ATCC 9321. Nature of the data set: Assimilation by intestinal microorganism. Format: cell-based. The following applies: 0.5 w/v % saccharide, PYF broth, 37° C., 96 hours. How it is done: as §1
The test system of data set [19] is Streptococcus faecalis IAM 10065. As to the kind of experiment: Assimilation by intestinal microorganism. Format: cell-based. To be noted: 0.5 w/v % saccharide, PYF broth, 37° C., 96 hours. How it is done:
as §1

Data set [20] concerns microorganisms of the genus Bifidobacterium. Nature of the data set: Assimilation by intestinal microorganism, overall finding. In kind it is cell-based. To be noted: conclusion from Table 3. How it is done:
as §1

A further data set deals with mice. As to the kind of experiment: Acute toxicity test, oral. An excerpt:
A crystalline lactoneotrehalose specimen, prepared by the method in Experiment 1, was orally administered to 7 week-old dd mice for acute toxicity test.

A further data set can be described thus: Solubility. Format: physicochemical.
Another data set is described as follows: Heat of dissolution. In kind it is physicochemical.
Data set [21] is described as follows: Hygroscopicity, deliquescence and moisture content. In kind it is physicochemical. An excerpt:
(9) Physical properties and color Colorless and transparent crystal having a true specific gravity of 1.59.

Data set [22] in a line: Acidity of aqueous solution. Format: physicochemical.
The next data set can be described thus: Coloring reaction. Format: physicochemical.

Turning to `OC[C@H]1O[C@@H](O[C@H]2[C@H](O)[C@@H](O)[C@H](O[C@H]3O[C@H](CO)[C@@H](O)[C@H](O)[C@H]3O)O[C@@H]2CO)[C@H](O)[C@@H](O)[C@H]1O` [lactoneotrehalose, O-β-D-galactopyranosyl-(1→4)-O-β-D-glucopyranosyl α-D-glucopyranoside], the metabolised in data set [1] amounted to 0%; in [2], 0%; in data set [3], 0%; in data set [4], 60.2%. The “main site of hydrolysis” value in data set [5] is listed as “mainly hydrolyzed by the enzyme from intestinal mucous membrane”. Moreover, the “Judgement of turbidity (A750 × 5)” value is “- (less than 0.1)” in data set [6]; “++ (0.2 or higher but less than 0.3)” in data set [7]; “++ (0.2 or higher but less than 0.3)” in [8]; “++ (0.2 or higher but less than 0.3)” in data set [9]; “++ (0.2 or higher but less than 0.3)” in data set [10]; “++ (0.2 or higher but less than 0.3)” in [11]. The “Judgement of turbidity (A750 × 5)” value in data set [12] is on record as “- (less than 0.1)”; in data set [13] it was “- (less than 0.1)”; in [14], “- (less than 0.1)”; in data set [15], “- (less than 0.1)”; in data set [16] it was “± (0.1 or higher but less than 0.15)”; in [17], “- (less than 0.1)”. Also, the “Judgement of turbidity (A750 × 5)” value in data set [18] and in data set [19] was “- (less than 0.1)” throughout. In addition, the “selective utilization by genus Bifidobacterium” value in data set [20] is reported as “selectively utilized at a relatively high-level by microorganisms of the genus Bifidobacterium”. For the same compound, in the data set on mice (7 week-old dd mice, up to 5 g), the mortality entry is “no mouse died”. Also, the toxicity entry in the data set with mice (dd mice, conclusion) was “extremely low in toxicity”. Besides, the Solubility in solvents result in the data set “Solubility” (0.1N hydrochloric acid) was “Readily soluble”; in the data set “Solubility” (0.1N sodium hydroxide), “Readily soluble”; in the data set “Solubility” (chloroform), “insoluble”; in the data set “Solubility” (ethanol) it was “scarcely soluble”; in “Solubility” (ethyl acetate), “insoluble”; in “Solubility” (methanol), “scarcely soluble”. The Solubility in solvents entry in “Solubility” (water) is “Readily soluble”. This compound yielded a solubility in the data set “Solubility” (water, 25° C.) of 217 mg/mL (≈ 430 mM). For the same compound, the Heat of dissolution in “Heat of dissolution” came to 20.0 cal/g. Further, the hygroscopicity and deliquescence result in [21] is “Free of hygroscopicity and deliquescence”. Also, in data set [21] (Karl Fischer's method, predried in vacuo at 60° C. for 16 hours), the “moisture content of crystals” value was “less than 3.0%”. The “acidity of aqueous solution of the crystal” value in data set [22] is on record as “neutral or slight acidity”. For the same compound, the “Fehling's reaction” value in “Coloring reaction” is recorded as “Negative”. Besides, the iodine coloration reaction entry in the data set “Coloring reaction” was “Negative”.

As to `OC[C@H]1O[C@@H](O[C@H]2[C@H](O)[C@@H](O)C(O)O[C@@H]2CO)[C@H](O)[C@@H](O)[C@H]1O` (stereo partly drawn) [Lactose, O-β-D-galactopyranosyl-(1→4)-D-glucose], the “Judgement of turbidity (A750 × 5)” value in [6] was “± (0.1 or higher but less than 0.15)”; in [7], “++ (0.2 or higher but less than 0.3)”; in [8], “++ (0.2 or higher but less than 0.3)”; in data set [9], “+++ (0.3 or higher)”; in [10], “++ (0.2 or higher but less than 0.3)”; in data set [11], “++ (0.2 or higher but less than 0.3)”. The “Judgement of turbidity (A750 × 5)” value is recorded as “- (less than 0.1)” in data set [12]; “± (0.1 or higher but less than 0.15)” in data set [13]; “++ (0.2 or higher but less than 0.3)” in data set [14]; “- (less than 0.1)” in [15]; “+ (0.15 or higher but less than 0.2)” in [16]; “+ (0.15 or higher but less than 0.2)” in data set [17]. For the same compound, the “Judgement of turbidity (A750 × 5)” value in data set [18] is given as “- (less than 0.1)”; in data set [19], “+ (0.15 or higher but less than 0.2)”.

For `O=C[C@H](O)[C@@H](O)[C@H](O)[C@H](O)CO` [Glucose, glucose], the “Judgement of turbidity (A750 × 5)” value in data set [6] is on record as “± (0.1 or higher but less than 0.15)”; in data set [7], “++ (0.2 or higher but less than 0.3)”; in data set [8], “++ (0.2 or higher but less than 0.3)”; in [9], “++ (0.2 or higher but less than 0.3)”; in data set [10] it was “++ (0.2 or higher but less than 0.3)”; in data set [11], “++ (0.2 or higher but less than 0.3)”. In addition, the “Judgement of turbidity (A750 × 5)” value is reported as “++ (0.2 or higher but less than 0.3)” in [13]; “+++ (0.3 or higher)” in [14]; “± (0.1 or higher but less than 0.15)” in [15]; “+ (0.15 or higher but less than 0.2)” in data set [16]; “+ (0.15 or higher but less than 0.2)” in [17]; “- (less than 0.1)” in [18]. Further, the “Judgement of turbidity (A750 × 5)” value in data set [19] is “++ (0.2 or higher but less than 0.3)”.
